# Article PMC8470881, “Membrane Interactions of Latarcins: Antimicrobial Peptides from Spider Venom” (International Journal of Molecular Sciences, 2021)
# No end group written: not given here.
# Legend:
# [1] = system: Bacillus subtilis subsp. spizizenii (DSM 347), Staphylococcus xylosus (DSM 20267), Escherichia coli (DSM 1116), Acinetobacter sp. (DSM 586); conditions: for MIC: irrespective of the bacterial strain (all four strains), Müller-Hinton medium, 20 h at 37 °C, maximum tested 256 µg/mL
# Procedure: The effect of latarcins against four types of bacteria was determined using a minimum inhibitory concentration (MIC) assay on two Gram-positive strains (Bacillus subtilis subsp. spizizenii and Staphylococcus xylosus) and two Gram-negative strains (Escherichia coli and Acinetobacter sp.). Although the antimicrobial activity of latarcins is well documented, these experiments served to ensure that all studies were performed on molecules that show the expected antimicrobial activity.
# The minimum inhibitory concentration (MIC) was determined as previously reported. For each latarcin, MIC was determined against two Gram-positive strains, namely Bacillus subtilis subsp. spizizenii (DSM 347) and Staphylococcus xylosus (DSM 20267), and two Gram-negative strains: Escherichia coli (DSM 1116) and Acinetobacter sp. (DSM 586). Bacterial cultures were grown in Müller-Hinton medium (MHM) as described previously, and peptides were dissolved in sterile water containing 10% DMSO. The stock solution of peptides with 1024 µg/mL was prepared such that serial dilutions of peptides (from 256 µg/mL to 2 µg/mL) in MHM were prepared in 96-well plates with the penultimate column without peptide to act as positive control (no peptide) and the final column as negative control (no bacteria). Bacterial stock suspension was made with an OD of 0.2 units at 550 nm. This stock solution was further diluted (1:1000 for Gram-negative bacteria and 1:100 for Gram-positive bacteria), and subsequently, 50 µL of the resulting bacterial suspension was added to the wells except the final well to give a final concentration of 10^6 colony-forming units per mL. Afterwards, the 96-well plates were incubated at 37 °C for 20 h, and cellular respiration was detected by adding 20 µL of resazurin solution (200 µg/mL) for an additional 2 h at the same temperature.
# [2] = Circular dichroism spectroscopy (secondary structure); type: physicochemical; conditions: CD in DMPC/DMPG (7/3) SUVs, P/L = 1:50, 10 mM phosphate buffer pH 7.0, 30 °C, peptide 29.3 μM; deconvolution with CDSSTR, CONTIN-LL, SELCON-3
# Description: Next, we compared the secondary structure of the full set of latarcins in the presence of lipid membranes, for which there are no complete data available yet.
# The CD line shapes (Figure 2) were deconvoluted to estimate the secondary structure contributions (Supplementary Table S1) using the CDSSTR, CONTIN-LL, and SELCON-3 algorithms provided on the DICHROWEB online server as described previously. […] In peptides containing a high proportion of aromatic residues, such shifts of the long-wavelength band are well documented.
# Small unilamellar vesicles (SUVs) for the CD measurements were prepared as follows. Weighed amounts of the lipid powders (DMPC, DMPG) were dissolved in chloroform/methanol 1/1 (v/v) to obtain 5 mg/mL stock solutions. For obtaining mixed DMPC/DMPG liposomes (7/3 molar ratio), the appropriate aliquots of these stock solutions were pipetted in a glass vial and thoroughly vortexed. The organic solvents were removed under a gentle stream of nitrogen gas, followed by 3 h of vacuum pumping in an exsiccator at a reduced pressure of 3-4 mbars to remove solvent residuals from the lipid film that had formed in the vial. The lipid film was dispersed by the addition of 10 mM phosphate buffer (PB) pH 7.0 and homogenized by vigorously vortexing for 10 × 1 min and 10 freeze–thaw cycles. SUVs were formed by sonication of the obtained multilamellar vesicles for 16 min in a strong ultrasonic bath (UTR 200, Hielscher, Germany). The temperature of the water in the ultrasonic bath was adjusted to 35 °C by circulating it through a thermostat to avoid overheating the samples. A weighed amount of the corresponding peptide was dissolved in water resulting in stock solutions with a peptide concentration of 0.5 mg/mL. For the final CD samples, each peptide stock solution was diluted to 29.3 μM and the corresponding lipid dispersion to 1.47 mM in 10 mM PB, resulting in a peptide-to-lipid (P/L) ratio of 1/50.
# […] The samples were measured in a 1-millimeter path length quartz glass cell (Suprasil, Hellma Müllheim, Germany) between 260 and 185 nm at 0.5 nm intervals. Spectra of the liposome samples were recorded at 30 °C, i.e., well above the phase transition temperature of the lipids, using a water-thermostated rectangular cell holder. Three repeat scans at a scan rate of 10 nm min^−1, 8 s response time, and 1 nm bandwidth were averaged for each sample, and the baseline spectrum of the respective peptide-free sample was subtracted from the sample spectrum. CD spectra were smoothened by a Savitzky-Golay filter (convolution width of 15 data points), which is implemented in the Jasco Spectra Analysis software.
# [3] = Oriented circular dichroism (helix alignment in membrane); type: physicochemical; conditions: DMPC/DMPG (7/3), P/L = 1:100, oriented hydrated bilayers, 30 °C
# Description: This is the same lipid composition and peptide-to-lipid ratio as was used in conventional CD above (see Figure 2), but in contrast to the vesicular samples containing excess water, the oriented membranes for OCD are just about saturated with water.
# The sign and intensity of the 208 nm band provide a characteristic signature of the helix tilt angle in the membrane [19]. For a helical peptide that lies flat on the bilayer surface, this band is the most intense.
# To prepare oriented CD (OCD) samples, latarcins depending on their solubility were dissolved either in pure MeOH or CHCl3/MeOH 1/1 (v/v) and thoroughly mixed with appropriate aliquots of DMPC/DMPG solutions (7/3 molar ratio) in the same solvent. Each co-dissolved mixture with a peptide-to-lipid molar ratio of 1/100 was deposited on a quartz glass plate using a gas-tight syringe. To achieve a spot size of 12.5 mm on the 20 mm diameter plates (Suprasil QS, Hellma Optik GmbH, Jena, Germany), a volume of ~55–60 µL was used. The organic solvents were evaporated in a gentle stream of air until the sample appeared dry. The amounts of deposited lipid and peptide on the plate were always 0.29 μmole and 2.9 nmole, respectively. The peptide-lipid-film was further dried under reduced pressure for at least 3 h. Afterwards, each plate with the dried sample was fixed and sealed by a polymer O-ring in a cylindrical sample holder. The plate with the sample and a second window plate without the sample formed a compartment for controlled hydration. The holder was assembled in a custom-built hydration cell. In the inner compartment of the sample holder, the peptide-lipid film was hydrated for about 15 h at 30 °C and 97% relative humidity via the gas phase by a saturated K2SO4 solution contained in an adjacent cavity of the hydration cell. During hydration, the lipids spontaneously align as lipid bilayers that are macroscopically oriented perpendicular to the glass surface. For the measurement, the holder was transferred to an OCD sample cell that had been developed and built in-house [20]. It is computer-controlled and can be integrated into a Jasco spectropolarimeter as an accessory. The optical path runs along the cylindrical axis of the cell, i.e., normal to the quartz glass plate surface carrying the oriented lipid film. To reduce possible spectral artifacts caused by linear dichroism (LD) or linear birefringence (LB) due to imperfections in the sample, strain in the quartz glass or imperfect alignment of the windows, the OCD spectra were recorded in steps of 45° by rotation of the cell around the beam axis [19, 20]. At each angle, two scans were recorded from 260–185 nm as an average, using a scan rate of 20 nm min^−1, 4 s response time, and 1 nm bandwidth.
# [4] = Solid-state 15N-NMR (helix alignment in membrane); type: physicochemical; conditions: DMPC/DMPG (7/3), P/L = 1:100, oriented samples, solid-state 15N-NMR, 308 K
# Procedure: While OCD provides a rough picture of the peptide alignment, the helix tilt angle can be measured rather precisely by solid-state NMR using the same type of oriented membrane sample. […] If the peptides are not helical, then the orientation cannot be determined from these ^15N-NMR spectra (which is why CD/OCD need to be performed first), but other information may be available. Oriented NMR samples were prepared at a P/L of 1/100 in DMPC/DMPG (7/3), as for CD/OCD. The ^15N-NMR spectra of all latarcins are summarized in Figure 7, along with the corresponding ^31P-NMR spectra of the phospholipid component. […] This conclusion is supported by the vesicle leakage data above.
# Ltc2a, with a chemical shift of 131 ppm, on the other hand, is distinctly tilted in the membrane, as was also observed in the OCD experiments. […] Ltc3a, with a chemical shift of 93 ppm, is tilted only slightly by 10–20°. […] Given that OCD had shown distinct signs of aggregation into β-sheets, we can conclude that Ltc6a binds to the membrane and perturbs the lipid bilayer, but it is not possible to determine the molecular alignment of Ltc6a when it has most likely formed aggregates.
# Macroscopically oriented NMR samples were prepared by co-dissolving appropriate amounts of peptides and lipids (in 300 μL methanol, 100 μL CHCl3, and 10–20 μL Milli-Q water) and spreading them onto 23 thin glass plates of dimensions 9 mm × 7.5 mm × 0.08 mm (Marienfeld Laboratory Glassware, Lauda-Königshofen, Germany). The peptide-to-lipid ratio (P/L) is given in mol/mol. The plates were dried in air for 1 h, followed by drying under vacuum overnight. The plates were stacked and placed into a hydration chamber with 96% relative humidity at 48 °C for 18–24 h before wrapping the stack in parafilm and plastic foil for the NMR measurements. All solid-state NMR measurements were carried out on a Bruker Avance 500 MHz spectrometer (Bruker Biospin, Karlsruhe, Germany) at 308 K, as previously reported. The oriented membrane samples were placed in the flat-coil probe such that the lipid bilayer normal was aligned parallel to the magnetic field. ^31P-NMR was used to check the quality of the lipid orientation in the samples, using a Hahn echo sequence with phase cycling. The 90° pulse length was 3.9 µs, the echo time was 30 µs, and 17 kHz ^1H SPINAL64 decoupling was used. ^1H-^15N cross-polarization experiments using a CP-MOIST pulse sequence were performed using a double-tuned probe with a low-E flat-coil resonator (3 mm × 9 mm cross-section), employing a ^1H and ^15N radiofrequency field strength of 65 kHz during the cross-polarization and 25 kHz ^1H SPINAL16 [41] decoupling during acquisition. A mixing time of 500 μs was used, and 10,000 to 30,000 scans were accumulated. The acquisition time was 10 ms, and the recycle time was 3 s. The ^15N chemical shift was referenced using the ^1H-NMR signal of water in the sample.
# human red blood cells = test: Hemolysis assay; conditions: peptide concentration 128 µg/mL, 30 min, 37 °C
# Procedure: A hemolysis assay was performed to determine the activity of latarcins against human red blood cells, allowing us to compare the results to those of previous experiments in which rabbit erythrocytes were used. The activity was determined for each latarcin as a function of increasing concentration, up to a maximum of 256 µg of peptides per mL. […] The percentage hemolysis of the other peptides was determined at the highest tested concentration of 256 µg/mL.
# The influence of latarcins on human erythrocytes was determined by using a hemolysis assay modified from previously published methods. Blood was obtained from the blood bank of the local hospital in Karlsruhe and stabilized with citrate phosphate dextrose buffer. Erythrocyte suspension (5 mL) was taken up in Tris buffer (45 mL, 172 mM, pH 7.6) at room temperature, gently mixed, and centrifuged (1500 rpm, 10 min). The supernatant solution was removed, and Tris wash was repeated twice with 45 mL as above. The washed erythrocytes (1 mL) were suspended in 9 mL Tris buffer to make the stock cell suspension, which was then further diluted to 0.25% (v/v) at 37 °C before use. Peptide stock solutions were prepared with 1024 µg/mL in Tris buffer containing 10% DMSO, and serial dilutions were prepared in the range of 512 µg/mL to 2 µg/mL as described previously. For the positive control, Triton X-100 (200 µL of 0.2% v/v) was used, and as the negative control, Tris buffer (200 µL, 172 mM) was used. Erythrocyte stock cell suspension (200 µL) was added to each of the samples and incubated for 30 min at 37 °C with gentle shaking before determining the percentage of hemolysis as described previously.
Substance,MIC [1],MIC (relative antimicrobial activity) ([1]; relative activity over two Gram-positive and two Gram-negative strains),% Helix (CD) [2],OCD: orientational state of the helix [3],NMR: orientational state of the helix [4],% Hemolysis (human red blood cells)
H-SMWSGMWRRKLKKLRNALKKKLKGE-OH [Ltc1],below 4 µg/mL,+++,66%,Surface,Surface,–
GLFGKLIKKFGRKAISYAVKKARGKH [Ltc2a],below 4 µg/mL,–,–,–,–,100%
